# Experimental data published in article PMC10986487, “Epidrugs: alternative chemotherapy targeting Theileria annulata schizont stage parasites” (Microbiology Spectrum, 2024).
# Like-named read-outs stand apart in the source and are kept apart here.
# How the values were obtained:
# [1] = system: T. annulata-infected bovine cells; assay: Resazurin-based drug susceptibility assay, 2-fold serial dilutions, 48 hours; type: cell-based, Theileria annulata; details: 0.019 µM to 10 µM, read-out: IC50 against T. annulata-infected cells
# Method: In this study, we conducted a screening of 148 compounds from the Cayman epigenetics library against the asexual schizont stage of T. annulata-infected bovine cells to assess their potential anti-theilerial activity (Fig. 1A). The initial screening involved testing the compounds at a concentration of 10 µM, with BPQ serving as the internal control. […] Subsequently, we performed drug susceptibility assays on the selected 27 compounds to determine their 50% inhibitory concentration (IC50) values against T. annulata-infected cells. To do this, 2-fold serial dilutions ranging from 0.019 µM to 10 µM were prepared, and the percentage of cell death was assessed after 48 hours using resazurin-based assays.
# Fig 1 Screening of epigenetic inhibitors for potential anti-theilerial activity in T. annulata-infected cells. (A) List of compounds and their functional classes used in this study. (B) Inhibition (%) of the hits (n = 27) with anti-theilerial activity when screened in T. annulata-infected cells, where the cut-off (--) was set at 50% inhibition. […] (E) Flow cytometry-based detection of annexin V-positive T. annulata-infected cells upon drug treatment for detection of early apoptosis.
# Theileria annulata = system: Theileria annulata; set-up: method as in earlier work; details: ref 14 (Titus et al.); read-out: Concentration displaying anti-theilerial effects; cited from earlier work
Compound,IC50 [1] [µM],IC50 (Theileria annulata) [µM],IC50 ([1]; Theileria annulata) [µM]
CC1(C)C(=O)N=C2C1=C(O)C(=O)c1ccccc12 [BVT-948],2.58,,
COC(=O)/C=C/C(=O)N(O)CCCCNCc1ccc(COC(=O)Nc2cccc3ccccc23)cc1 [Methylstat],6.97,,
CC1=CC(=O)c2c(O)cccc2C1=O [Plumbagin],,0.009,8.13
Cc1ccc(NC2=CC(=O)c3sc(C)nc3C2=O)cc1 [Ryuvidine],2.18,,
O=C(CCl)Nc1ccc(S(=O)(=O)c2ccc(NC(=O)CCl)cc2)cc1 [TCE-5003],3.68,,
CC(/C=C/C(=O)NO)=C\[C@@H](C)C(=O)c1ccc(N(C)C)cc1 [Trichostatin A],6.02,,
